# Measured values as given in US12391701B2, “Chromene-based compounds, methods and uses thereof” (University of Minho, priority 2019, dated 2025).
# Like-named read-outs stand apart in the source and are kept apart here.
# Columns and labels:
# Format in all cases: cell-based
# [1] = test system: non-neoplastic cell line MCF-10A; assay: Cell viability assay (MTS), MCF-10A; conditions: Homo sapiens, 72 h incubation
# Procedure: (§1) In an embodiment, the cell growth inhibition and IC50 values of the synthesised and isolated chromene-based compounds were determined as part of the evaluation of the antiproliferative activity of the isolated agents. A complete study on the structure-activity relationship was performed for all the synthesised compounds. The antiproliferative activity against MCF-7 breast cancer cell lines were analysed. […] The non-neoplastic cell line MCF-10A was also used to determine the selectivity of the compounds for the tumour cells. For compounds with an IC50 value (concentration required to reduce cell viability by 50%) higher than 20 μM, the IC50 value was not determined. Selectivity index (SI) was calculated in order to evaluate the cytotoxicity of the tested compounds.
# (§2) In an embodiment, three human breast cancer cell lines Hs578T, MDA-MB-468 and MCF-7, and a normal breast cell line MCF-10A, were obtained from ATCC (American Type Culture Collection). The cancer cell lines were cultured in Dulbecco's modified Eagle medium, 4.5 g/l glucose (DMEM, Gibco) supplemented with 10% heating inactivated Fetal Bovine Serum (FBS, Gibco) and 1% antibiotic solution (Penicillin-Streptomycin, Gibco). The normal cell line was cultured in Dulbecco's Modified Eagle Medium: Nutrient Mixture F-12 (DMEM/F12, Gibco) supplemented with 5% heating inactivated FBS (Gibco), 1% antibiotic solution (Penicillin-Streptomycin, Gibco), 1% steroid hormone (Hydrocortisone, Sigma-Aldrich), 0.1% peptide hormone (Insulin, Sigma-Aldrich) and 0.01% protein complex (Cholera Toxin, Gibco). Two distinct human acute myeloid leukemia (AML) cell lines, HL-60 (FAB M2) and KG-1 (erythroleukemia-FAB M6), and one human lymphoblastic leukemia (ALL) cell line, Jurkat (T cell type), were also used. These three cell lines were obtained from German Collection of Microorganisms and Cell cultures (DMSZ®, Deutsche Sammlung von Mikroorganismen and Zellkulturen in German). Cells were cultured in RPMI 1640 medium (Biochrom®-Merck Millipore) supplemented with 10% heating inactivated FBS (Biochrom®-Merck Millipore) and 1% antibiotic/antimitotic mixture (Invitrogen®). Three human glioblastoma (GBM) cell line models, two established and commercially available cell lines (U87MG and GAMG, kind gift from Rui M. Reis) and one primary GBM culture (GLIB) were also used. GBM cells were cultures in DMEM (Biochrom-Merck Millipore), all supplemented with 10% FBS. The Renal cell carcinoma cell lines A498, 786-O, Caki-2 and HK2 were obtained from ATCC. The cancer cell line A498 was cultured in MEM medium (Biochrom®-Merck Millipore), 786-O was cultured in RPMI 1640 medium (Biochrom®-Merck Millipore), Caki-2 was cultured in Mc Coys medium (Biochrom®-Merck Millipore) and HK2 was cultured in RPMI 1640 medium (Biochrom®-Merck Millipore). All the media were supplemented with 10% heat inactivated FBS (Biochrom®-Merck Millipore) and 1% antibiotic/antimitotic mixture (Invitrogen®). All cells were grown in a humidified incubator at 37° C. and 5% CO2. For all assays, DMSO (Dimethyl Sulfoxide, Sigma-Aldrich) controls were used.
# (§3) In an embodiment, cell viability assays were performed. MCF-7, Hs578T and MCF-10A cells were plated in triplicate in 96-multiwell culture plates, at 3000 cells […], or 5000 cells […] for MDA-MB-468 (100 μL/well). The cells were then allowed to adhere in complete medium, over a period of 18-20 hours. Cells were subsequently treated with 7 different concentrations (from 0.1 to 40 μM or 5 to 60 μM) of compounds or control in fresh medium. HL-60, KG-1 and Jurkat cell lines were plated in 96-multiwell culture plates at 50.000 cells/100 μL per well and treated with different concentrations (from 0.001 to 2 μM) of the compounds described (or control). Cells were plated, in triplicate, at an initial density of 2000 cells/well for GAMG, 4000 cells/well for GL18 and 6000 cells/well for U87MG, in 96-well plates, and allowed to adhere for 18-20 hours. […]
# [2] = test system: renal carcinoma cell line Caki-2; assay: Cell viability (sulforhodamine B), Caki-2; conditions: Homo sapiens, Table 5
# Procedure: (§4) In an embodiment, the antiproliferative activity of the compounds was further determined against renal carcinoma cell lines and non-neoplastic kidney cell line.
# as §2
# (§5) In an embodiment, cell viability assays were performed. MCF-7, Hs578T and MCF-10A cells were plated in triplicate in 96-multiwell culture plates, at 3000 cells per mL, or 5000 cells per mL for MDA-MB-468 (100 μL/well). The cells were then allowed to adhere in complete medium, over a period of 18-20 hours. Cells were subsequently treated with 7 different concentrations (from 0.1 to 40 μM or 5 to 60 μM) of compounds or control in fresh medium. HL-60, KG-1 and Jurkat cell lines were plated in 96-multiwell culture plates at 50.000 cells/100 μL per well and treated with different concentrations (from 0.001 to 2 μM) of the compounds described (or control). Cells were plated, in triplicate, at an initial density of 2000 cells/well for GAMG, 4000 cells/well for GL18 and 6000 cells/well for U87MG, in 96-well plates, and allowed to adhere for 18-20 hours. Cells were then treated with different concentrations of the compounds (0.005 to 100 μM) or with control. A498 and 786-O cells were plated at 2000 cells per mL, Caki-2 cells were plated at 3000 cells per mL and HK2 cells were plated at 2000 cells per mL in triplicate, in 96-multiwell culture plates (100 μL/well), and allowed to adhere over a period of 18-20 hours in complete medium. The cells were then treated with 7 different concentrations (from 0.1 to 40 μM or 5 to 60 μM) of compounds or control in fresh medium. […]
# [3] = test system: non-neoplastic cell line (HK2); assay: Cell viability, HK2
# Procedure: as §4, §2, §5
# [4] = test system: breast cancer cell line MCF-7; assay: Cell viability assay (MTS), MCF-7; conditions: Homo sapiens, MCF7; 72 h incubation
# Procedure: as §1, §2, §3
# [5] = test system: renal carcinoma cell line 786-O; assay: Cell viability (sulforhodamine B), 786-O; conditions: Homo sapiens, 786-0; Table 5
# Procedure: as §4, §2, §5
# [6] = Table 6, read-out: IC50 (μM) HK2
SMILES,IC50 [1],IC50 [2],"IC50 ([3]; Table 5, read-out: IC50 HK2)","IC50 [3, 6]",IC50 [4],IC50 [5]
"COc1cccc2c1Oc1nc(-c3ccccc3)[nH]c1C2 [MC350, 5-methoxy-2-phenyl-3,9-dihydrochromeno[2,3-d]imidazoles]",8460 nM,394 nM,21.5 µM,21.5 µM,740 nM,513 nM
"COc1cccc2c1Oc1nc(-c3ccccc3F)[nH]c1C2C1c2cccc(OC)c2Oc2nc(-c3ccccc3F)[nH]c21 (stereo not drawn) [MC369, 2,2′-bis(2-fluorophenyl)-5,5′-dimethoxy-1,1,9,9′-tetrahydro-9,9′-bichromeno[2,3-]imidazoles]",> 20000 nM,109 nM,0.83 µM,–,260 nM,53 nM
"COc1cccc2c1Oc1nc(-c3ccc(F)cc3)[nH]c1C2C1c2cccc(OC)c2Oc2nc(-c3ccc(F)cc3)[nH]c21 (stereo not drawn) [MC406, 2,2′-bis(4-fluorophenyl)-5,5′-dimethoxy-1,1,9,9′-tetrahydro-9,9′-bichromeno[2,3-]imidazoles]",12700 nM,178 nM,0.31 µM,–,200 nM,84 nM
"COc1cccc2c1Oc1nc(-c3ccccc3F)[nH]c1C2 [MC407, 2-(2-fluorophenyl)-5-methoxy-3,9-dihydrochromeno[2,3-d]imidazoles]",3930 nM,433 nM,1.03 µM,–,670 nM,673 nM
"COc1cccc2c1Oc1nc(-c3ccc(Br)cc3)[nH]c1C2 [MC408, 2-(4-bromophenyl)-5-methoxy-3,9-dihydrochromeno[2,3-d]imidazoles]",2990 nM,89 nM,3.49 µM,3.49 µM,620 nM,64 nM
"COc1cccc2c1Oc1nc(-c3ccc(F)cc3)[nH]c1C2 [MC409, 2-(4-fluorophenyl)-5-methoxy-3,9-dihydrochromeno[2,3-d]imidazoles]",14300 nM,359 nM,3.49 µM,3.49 µM,650 nM,495 nM
"COc1cccc2c1Oc1nc(-c3cc(F)cc(F)c3O)[nH]c1C2 [MC410, 2,4-difluoro-6-(5-methoxy-3,9-dihydrochromeno[2,3-d]imidazol-2-yl)phenol]",> 30000 nM,8530 nM,23.1 µM,23.1 µM,3530 nM,446 nM
"COc1ccccc1-c1nc2c([nH]1)Cc1cccc(OC)c1O2 [MC411, 5-methoxy-2-(2-methoxyphenyl)-3,9-dihydrochromeno[2,3-]imidazoles]",6820 nM,3960 nM,4.73 µM,4.73 µM,1710 nM,3730 nM
"COc1cccc2c1Oc1nc(-c3ccc(O)cc3)[nH]c1C2 [MC413, 4-(5-methoxy-3,9-dihydrochromeno[2,3-d]imidazol-2-yl)phenol]",> 20000 nM,381 nM,10.3 µM,10.3 µM,1090 nM,728 nM
"CCOc1ccc(-c2nc3c([nH]2)Cc2cccc(OC)c2O3)cc1 [MC415, 2-(4-ethoxyphenyl)-5-methoxy-3,9-dihydrochromeno[2,3-d]imidazoles]",1900 nM,62 nM,5.24 µM,5.24 µM,1640 nM,221 nM
"COc1ccc(-c2nc3c([nH]2)Cc2cccc(OC)c2O3)c(Br)c1O [MC416, 2-bromo-6-methoxy-3-(5-methoxy-3,9-dihydrochromeno[2,3-]imidazol-2-yl)phenol]",1990 nM,2540 nM,4.72 µM,4.72 µM,1040 nM,3140 nM
"COc1cccc2c1Oc1nc(-c3ccc(Br)cc3)[nH]c1C2C1c2cccc(OC)c2Oc2nc(-c3ccc(Br)cc3)[nH]c21 (stereo not drawn) [MC421, 2,2′-bis(4-bromophenyl)-5,5′-dimethoxy-1,1,9,9′-tetrahydro-9,9′-bichromeno[2,3-]imidazoles]",> 30000 nM,431 nM,2.49 µM,2.49 µM,310 nM,77 nM
